# In patent publication US6737383B1, “Herbicidal oxadiazolidines” (priority 1999, dated 2004):
# Assays:
# [1] = system: wild oat; experiment: Test B pre/postemergence wild oat; type: in vivo, Avena fatua
# Summary of the method: (§1)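 Response is a visual 0-to-10 score relative to untreated plants, where 0 means no effect and 10 means complete control, taken twelve to sixteen days after application. Treatments went onto soil at planting and onto foliage of 1- to 4-leaf plants, using a surfactant-containing non-phytotoxic solvent.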
# [2] = system: surinam grass; experiment: Test B pre/postemergence surinam grass; type: in vivo, Brachiaria decumbens
# Summary of the method: as §1
# [3] = system: velvetleaf; experiment: Test B pre/postemergence velvetleaf; type: in vivo, Abutilon theophrasti
# Summary of the method: as §1
# [4] = system: morningglory; experiment: Test B pre/postemergence morningglory; type: in vivo, Ipomoea hederacea
# Summary of the method: as §1
# [5] = system: corn; experiment: Test B pre/postemergence corn; type: in vivo, Zea mays
# Summary of the method: as §1
# [6] = system: rape; experiment: Test B pre/postemergence rape; type: in vivo, Brassica napus
# Summary of the method: as §1
# [7] = system: bedstraw; experiment: Test B pre/postemergence bedstraw; type: in vivo, Galium aparine; conditions: Rate 250 g/ha, Postemergence; scale of 0 to 10 where 0 is no effect and 10 is complete control
# Summary of the method: as §1
# [8] = system: giant foxtail; experiment: Test B pre/postemergence giant foxtail; type: in vivo, Setaria faberii
# Summary of the method: as §1
# [9] = system: purple nutsedge; experiment: Test B pre/postemergence purple nutsedge; type: in vivo, Cyperus rotundus
# Summary of the method: as §1
# [10] = system: wheat; experiment: Test B pre/postemergence wheat; type: in vivo, Triticum aestivum
# Summary of the method: as §1
# [11] = system: soybean; experiment: Test B pre/postemergence soybean; type: in vivo, Glycine max
# Summary of the method: as §1
# [12] = system: crabgrass; experiment: Test B pre/postemergence crabgrass; type: in vivo, Digitaria sanguinalis
# Summary of the method: as §1
# [13] = system: pigweed; experiment: Test B pre/postemergence pigweed; type: in vivo, Amaranthus retroflexus
# Summary of the method: as §1
# [14] = system: cocklebur; experiment: Test B pre/postemergence cocklebur; type: in vivo, Xanthium strumarium
# Summary of the method: as §1
# [15] = system: blackgrass; experiment: Test B pre/postemergence blackgrass; type: in vivo, Alopecurus myosuroides
# Summary of the method: as §1
# [16] = system: sugar beet; experiment: Test B pre/postemergence sugar beet; type: in vivo, Beta vulgaris
# Summary of the method: as §1
# [17] = Postemergence, Rate 62 g/ha, scale of 0 to 10, 0 is no effect, 10 is complete control
# [18] = Postemergence, Rate 125 g/ha, scale 0 to 10, 0 is no effect, 10 is complete control
# [19] = Postemergence, Rate 500 g/ha, scale 0 to 10, 0 is no effect, 10 is complete control
# [20] = Preemergence, Rate 62 g/ha, scale of 0 to 10 where 0 is no effect and 10 is complete control
# [21] = Preemergence, Rate 125 g/ha, scale 0 to 10, 0 is no effect, 10 is complete control
# [22] = Rate 250 g/ha, Postemergence, scale of 0 to 10 where 0 is no effect and 10 is complete control
# [23] = Preemergence, Rate 500 g/ha, scale of 0 to 10 where 0 is no effect and 10 is complete control
structure (smiles),measurement,setting,value
CCC(=O)Cn1c(=O)on(C(=O)N(c2ccc(F)cc2F)C(C)C)c1=O [Compound 524],Wild oats plant response rating,[1]; [17],0
same,Wild oats plant response rating,[1]; [18],0
same,"Plant response rating, Wild oats",[1]; [19],5
same,"Plant response rating, Wild oats",[1]; [20],7
same,Wild oats plant response rating,[1]; [21],9
same,Wild oats plant response rating (0 to 10 scale),"[1]; Preemergence, Rate 250 g/ha",8
same,"Plant response rating, Wild oats",[1]; [22],0
same,B. signalgrass plant response rating,[2]; [17],0
same,B. signalgrass plant response rating,[2]; [18],0
same,"Plant response rating, B. signalgrass",[2]; [19],9
same,"Plant response rating, B. signalgrass",[2]; [20],0
same,B. signalgrass plant response rating,[2]; [21],0
same,"B. signalgrass plant response rating (0 to 10 scale, 0 is no effect, 10 is complete control)","[2]; Preemergence, Rate 250 g/ha",2
same,"Plant response rating, B. signalgrass",[2]; [22],2
same,Velvetleaf plant response rating,[3]; [17],0
same,Velvetleaf plant response rating,[3]; [18],0
same,"Plant response rating, Velvetleaf",[3]; [19],6
same,"Plant response rating, Velvetleaf",[3]; [20],0
same,Velvetleaf plant response rating,[3]; [21],3
same,Velvetleaf plant response rating (0 to 10 scale),"[3]; Preemergence, Rate 250 g/ha",4
same,Velvetleaf plant response rating,[3]; [23],4
same,"Plant response rating, Velvetleaf",[3]; [22],5
same,Morningglory plant response rating,[4]; [17],0
same,Morningglory plant response rating,[4]; [18],2
same,"Plant response rating, Morningglory",[4]; [19],2
same,"Plant response rating, Morningglory",[4]; [20],0
same,Morningglory plant response rating,[4]; [21],0
same,Morningglory plant response rating (0 to 10 scale),"[4]; Preemergence, Rate 250 g/ha",2
same,Morningglory plant response rating,[4]; [23],2
same,"Plant response rating, Morningglory",[4]; [22],2
same,Corn plant response rating,[5]; [17],0
same,Corn plant response rating,[5]; [18],2
same,"Plant response rating, Corn",[5]; [19],5
same,"Plant response rating, Corn",[5]; [20],0
same,Corn plant response rating,[5]; [21],0
same,Corn plant response rating (0 to 10 scale),"[5]; Preemergence, Rate 250 g/ha",7
same,Corn plant response rating,[5]; [23],9
same,"Plant response rating, Corn",[5]; [22],3
same,Rape plant response rating,[6]; [17],0
same,Rape plant response rating,[6]; [18],0
same,"Plant response rating, Rape",[6]; [19],3
same,"Plant response rating, Rape",[6]; [20],2
same,Rape plant response rating,[6]; [21],2
same,Rape plant response rating (0 to 10 scale),"[6]; Preemergence, Rate 250 g/ha",7
same,"Plant response rating, Rape",[6]; [22],0
same,"Plant response rating, Bedstraw",[7],9
same,Giant foxtail plant response rating,[8]; [17],4
same,Giant foxtail plant response rating,[8]; [18],8
same,"Plant response rating, Giant foxtail",[8]; [19],9
same,"Plant response rating, Giant foxtail",[8]; [20],9
same,Giant foxtail plant response rating,[8]; [21],9
same,Giant foxtail plant response rating (0 to 10 scale),"[8]; Preemergence, Rate 250 g/ha",9
same,Giant foxtail plant response rating,[8]; [23],10
same,"Plant response rating, Giant foxtail",[8]; [22],8
same,"Plant response rating, Nutsedge",[9]; [19],0
same,"Plant response rating, Nutsedge",[9]; [20],0
same,Nutsedge plant response rating,[9]; [21],0
same,Nutsedge plant response rating (0 to 10 scale),"[9]; Preemergence, Rate 250 g/ha",0
same,Nutsedge plant response rating,[9]; [23],4
same,Wheat plant response rating,[10]; [17],0
same,Wheat plant response rating,[10]; [18],0
same,"Plant response rating, Wheat",[10]; [19],5
same,"Plant response rating, Wheat",[10]; [20],0
same,Wheat plant response rating,[10]; [21],5
same,Wheat plant response rating (0 to 10 scale),"[10]; Preemergence, Rate 250 g/ha",7
same,"Plant response rating, Wheat",[10]; [22],0
same,Soybean plant response rating,[11]; [17],3
same,"Plant response rating, Soybean",[11]; [19],4
same,"Plant response rating, Soybean",[11]; [20],0
same,Soybean plant response rating,[11]; [21],0
same,Soybean plant response rating (0 to 10 scale),"[11]; Preemergence, Rate 250 g/ha",0
same,Soybean plant response rating,[11]; [23],0
same,"Plant response rating, Soybean",[11]; [22],3
same,Crabgrass plant response rating,[12]; [17],3
same,Crabgrass plant response rating,[12]; [18],8
same,"Plant response rating, Crabgrass",[12]; [19],9
same,"Plant response rating, Crabgrass",[12]; [20],9
same,Crabgrass plant response rating,[12]; [21],10
same,Crabgrass plant response rating (0 to 10 scale),"[12]; Preemergence, Rate 250 g/ha",9
same,Crabgrass plant response rating,[12]; [23],10
same,"Plant response rating, Crabgrass",[12]; [22],8
same,Redroot pigweed plant response rating,[13]; [17],0
same,Redroot pigweed plant response rating,[13]; [18],0
same,"Plant response rating, Redroot pigweed",[13]; [19],0
same,"Plant response rating, Redroot pigweed",[13]; [20],8
same,Redroot pigweed plant response rating,[13]; [21],8
same,Redroot pigweed plant response rating (0 to 10 scale),"[13]; Preemergence, Rate 250 g/ha",8
same,"Plant response rating, Redroot pigweed",[13]; [22],0
same,Cocklebur plant response rating,[14]; [17],0
same,Cocklebur plant response rating,[14]; [18],0
same,"Plant response rating, Cocklebur",[14]; [19],3
same,"Plant response rating, Cocklebur",[14]; [20],0
same,Cocklebur plant response rating,[14]; [21],0
same,Cocklebur plant response rating (0 to 10 scale),"[14]; Preemergence, Rate 250 g/ha",0
same,Cocklebur plant response rating,[14]; [23],2
same,"Plant response rating, Cocklebur",[14]; [22],0
same,Blackgrass plant response rating,[15]; [17],0
same,Blackgrass plant response rating,[15]; [18],2
same,"Plant response rating, Blackgrass",[15]; [19],8
same,"Plant response rating, Blackgrass",[15]; [20],4
same,Blackgrass plant response rating,[15]; [21],4
same,Blackgrass plant response rating (0 to 10 scale),"[15]; Preemergence, Rate 250 g/ha",4
same,"Plant response rating, Blackgrass",[15]; [22],9
same,Sugarbeets plant response rating,[16]; [17],0
same,Sugarbeets plant response rating,[16]; [18],0
same,"Plant response rating, Sugarbeets",[16]; [19],0
same,"Plant response rating, Sugarbeets",[16]; [20],0
same,Sugarbeets plant response rating,[16]; [21],3
same,Sugarbeets plant response rating (0 to 10 scale),"[16]; Preemergence, Rate 250 g/ha",6
same,"Plant response rating, Sugarbeets",[16]; [22],0
